# According to patent publication US10668067B2, “Pyridine sulfonamides” (AMGEN INC., priority 2016, dated 2020):
# Molecular target: human Nav1.7 (Homo sapiens (Human), UniProt Q15858)
# Assay: Nav 1.7 In Vitro PX Assay (PatchXpress whole cell voltage clamp)
# Assay type: cell-based
# Settings: in-vitro Nav 1.7 PX data
# Method: HEK 293 cells stably transfected with human Nav1.7 were recorded in whole cell voltage clamp mode with the PatchXpress automated electrophysiology system (Molecular Devices, LLC, Sunnyvale, Calif.). Compound effects were measured on a partially inactivated state of the sodium channel. Cells were clamped to a holding potential yielding 20 to 50% inactivation. To elicit sodium current, channels were activated by pulsing to −10 mV for 20 msec. This voltage protocol was repeated at a rate of 0.1 Hz throughout the experiment. A single concentration of test compound was applied to cells for a duration of 3 minutes. Peak sodium current was measured at the end of the compound addition period to determine percent inhibition. Three to five cells were tested per concentration, and IC50 curves were fitted to percent inhibition as a function of concentration.
# Sequence of human Nav1.7 (Q15858 whole entry): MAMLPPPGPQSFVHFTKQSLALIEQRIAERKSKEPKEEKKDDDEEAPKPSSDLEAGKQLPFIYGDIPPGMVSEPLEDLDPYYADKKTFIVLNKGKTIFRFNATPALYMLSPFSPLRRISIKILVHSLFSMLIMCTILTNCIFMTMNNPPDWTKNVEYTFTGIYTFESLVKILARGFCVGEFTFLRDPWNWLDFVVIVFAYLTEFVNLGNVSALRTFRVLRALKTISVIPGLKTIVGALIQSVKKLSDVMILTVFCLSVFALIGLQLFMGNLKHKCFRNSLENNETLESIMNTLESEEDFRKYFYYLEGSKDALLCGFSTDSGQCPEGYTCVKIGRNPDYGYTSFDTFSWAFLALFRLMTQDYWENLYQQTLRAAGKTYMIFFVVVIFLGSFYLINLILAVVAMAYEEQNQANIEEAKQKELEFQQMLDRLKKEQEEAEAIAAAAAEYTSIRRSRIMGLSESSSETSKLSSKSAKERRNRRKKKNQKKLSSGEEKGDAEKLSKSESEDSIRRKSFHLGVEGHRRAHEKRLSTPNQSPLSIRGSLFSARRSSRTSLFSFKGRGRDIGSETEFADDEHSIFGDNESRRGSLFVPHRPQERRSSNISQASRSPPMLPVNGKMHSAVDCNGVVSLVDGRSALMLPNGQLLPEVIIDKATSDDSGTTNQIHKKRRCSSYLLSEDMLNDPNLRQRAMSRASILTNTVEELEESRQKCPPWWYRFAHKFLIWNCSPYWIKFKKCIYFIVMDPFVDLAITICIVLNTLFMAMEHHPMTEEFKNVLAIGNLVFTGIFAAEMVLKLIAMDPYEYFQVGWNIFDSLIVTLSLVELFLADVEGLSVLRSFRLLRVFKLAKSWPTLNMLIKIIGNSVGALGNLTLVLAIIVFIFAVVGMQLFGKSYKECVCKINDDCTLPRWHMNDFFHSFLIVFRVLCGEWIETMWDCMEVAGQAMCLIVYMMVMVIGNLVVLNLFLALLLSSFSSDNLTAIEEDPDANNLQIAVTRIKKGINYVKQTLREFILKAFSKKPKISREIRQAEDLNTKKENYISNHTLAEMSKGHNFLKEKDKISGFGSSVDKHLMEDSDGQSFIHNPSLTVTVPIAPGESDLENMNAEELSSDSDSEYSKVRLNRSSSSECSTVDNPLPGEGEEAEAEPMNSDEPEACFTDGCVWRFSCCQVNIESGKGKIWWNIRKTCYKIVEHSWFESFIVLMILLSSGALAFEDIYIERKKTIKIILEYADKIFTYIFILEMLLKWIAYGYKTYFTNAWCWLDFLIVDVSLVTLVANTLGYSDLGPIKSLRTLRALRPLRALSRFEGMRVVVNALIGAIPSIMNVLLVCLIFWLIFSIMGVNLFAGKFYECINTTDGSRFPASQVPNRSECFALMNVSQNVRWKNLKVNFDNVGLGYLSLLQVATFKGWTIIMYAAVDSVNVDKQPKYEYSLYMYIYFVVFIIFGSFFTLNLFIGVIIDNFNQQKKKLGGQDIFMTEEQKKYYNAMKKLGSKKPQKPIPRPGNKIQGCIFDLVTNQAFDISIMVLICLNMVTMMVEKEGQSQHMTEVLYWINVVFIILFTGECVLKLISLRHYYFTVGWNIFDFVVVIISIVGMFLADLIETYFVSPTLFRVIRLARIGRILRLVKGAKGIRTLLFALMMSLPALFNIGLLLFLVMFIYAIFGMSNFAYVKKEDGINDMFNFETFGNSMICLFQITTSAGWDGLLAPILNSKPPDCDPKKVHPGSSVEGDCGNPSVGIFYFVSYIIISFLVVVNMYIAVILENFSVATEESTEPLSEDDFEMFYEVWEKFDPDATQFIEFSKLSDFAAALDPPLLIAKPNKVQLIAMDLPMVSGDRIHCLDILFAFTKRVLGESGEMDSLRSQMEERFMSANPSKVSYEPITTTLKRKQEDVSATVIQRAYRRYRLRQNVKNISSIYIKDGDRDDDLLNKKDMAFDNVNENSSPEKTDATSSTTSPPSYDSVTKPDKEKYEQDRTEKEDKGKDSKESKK
row,IC50 [nM],SMILES
1,73,"CNC(=O)N(c1ccc(S(=O)(=O)Nc2cccc(F)n2)cn1)c1cc(Cl)c(-c2ccc(F)c(OCC(F)(F)F)c2)cc1OC [Example 3-3, 6-((2-chloro-4′-fluoro-5-methoxy-3′-(2,2,2-trifluoroethoxy)-4-biphenylyl)(methylcarbamoyl)amino)-N-(6-fluoro-2-pyridinyl)-3-pyridinesulfonamide]"
2,14,"CNC(=O)N(c1ccc(S(=O)(=O)Nc2cnsn2)cn1)c1cc(Cl)c(-c2ccc(F)c(C(F)(F)F)c2)cc1OC [Example 3-8, 6-((2-chloro-4′-fluoro-5-methoxy-3′-(trifluoromethyl)-4-biphenylyl)(methylcarbamoyl)amino)-N-1,2,5-thiadiazol-3-yl-3-pyridinesulfonamide]"
3,81,"CNC(=O)N(c1ccc(S(=O)(=O)Nc2ccon2)cn1)c1cc(-c2cc(Cl)cc(OC)c2)c(Cl)cc1OC [Example 4-8, 6-((3′,6-dichloro-4,5′-dimethoxy-3-biphenylyl)(methylcarbamoyl)amino)-N-3-isoxazolyl-3-pyridinesulfonamide]"
4,891,"CNC(=O)N(c1ccc(S(=O)(=O)Nc2ccon2)cn1)c1cc(-c2cccc(F)c2)c(Cl)cc1OC [Example 4-7, 6-((6-chloro-3′-fluoro-4-methoxy-3-biphenylyl)(methylcarbamoyl)amino)-N-3-isoxazolyl-3-pyridinesulfonamide]"
5,33,"CNC(=O)N(c1ccc(S(=O)(=O)Nc2ncccn2)cn1)c1cc(Cl)c(-c2ccc(F)c(OCC(F)(F)F)c2)cc1OC [Example 3-1, 6-((2-chloro-4′-fluoro-5-methoxy-3′-(2,2,2-trifluoroethoxy)-4-biphenylyl)(methylcarbamoyl)amino)-N-2-pyrimidinyl-3-pyridinesulfonamide]"
6,7,"CNC(=O)N(c1ccc(S(=O)(=O)Nc2cccnn2)cn1)c1cc(F)c(-c2ccc(F)c(OC(F)(F)F)c2)cc1OC [Example 3-13, 6-((2,4′-difluoro-5-methoxy-3′-(trifluoromethoxy)-4-biphenylyl)(methylcarbamoyl)amino)-N-3-pyridazinyl-3-pyridinesulfonamide]"
7,2370,"CNC(=O)N(c1ccc(S(=O)(=O)Nc2ccon2)cn1)c1cc(-c2cccc(F)c2)ccc1OC [Example 4-3, 6-((3′-fluoro-4-methoxy-3-biphenylyl)(methylcarbamoyl)amino)-N-3-isoxazolyl-3-pyridinesulfonamide]"
8,17,"CNC(=O)N(c1ccc(S(=O)(=O)Nc2ncco2)cn1)c1cc(F)c(-c2ccc(F)c(OC(F)(F)F)c2)cc1OC [Example 3-14, 6-((2,4′-difluoro-5-methoxy-3′-(trifluoromethoxy)-4-biphenylyl)(methylcarbamoyl)amino)-N-1,3-oxazol-2-yl-3-pyridinesulfonamide]"
9,51,"CNC(=O)N(c1ccc(S(=O)(=O)Nc2ccncn2)cn1)c1cc(Cl)c(-c2ccc(F)c(OCC(F)(F)F)c2)cc1OC [Example 3-6, 6-((2-chloro-4′-fluoro-5-methoxy-3′-(2,2,2-trifluoroethoxy)-4-biphenylyl)(methylcarbamoyl)amino)-N-4-pyrimidinyl-3-pyridinesulfonamide]"

# The remaining lines, values behind:
row,SMILES,IC50 [nM]
1,"CNC(=O)N(c1ccc(S(=O)(=O)Nc2ccon2)cn1)c1cc(Cl)c(C#CC2CCCC2)cc1OC [Example 7, 6-((5-chloro-4-(cyclopentylethynyl)-2-methoxyphenyl)(methylcarbamoyl)amino)-N-3-isoxazolyl-3-pyridinesulfonamide]",68
2,"CNC(=O)N(c1ccc(S(=O)(=O)Nc2nocc2C)cn1)c1cc(F)c(-c2ccc(F)c(C(F)(F)F)c2)cc1OC [Example 2-13, 6-(1-(2,4′-difluoro-5-methoxy-3′-(trifluoromethyl)-[1,1′-biphenyl]-4-yl)-3-methylureido)-N-(4-methylisoxazol-3-yl)pyridine-3-sulfonamide]",116
3,"CNC(=O)N(c1ccc(S(=O)(=O)Nc2ccon2)cn1)c1cc(F)c(-c2cc(C)cc(F)c2)cc1OC [Example 1-18, 6-((2,3′-difluoro-5-methoxy-5′-methyl-4-biphenylyl)(methylcarbamoyl)amino)-N-3-isoxazolyl-3-pyridinesulfonamide]",146
4,"CNC(=O)N(c1ccc(S(=O)(=O)Nc2ccon2)cn1)c1ccc(-c2cc(F)cc(Cl)c2)cc1OC [Example 1-74, 6-((3′-chloro-5′-fluoro-3-methoxy-4-biphenylyl)(methylcarbamoyl)amino)-N-3-isoxazolyl-3-pyridinesulfonamide]",84
5,"CNC(=O)N(c1ccc(S(=O)(=O)Nc2ncccn2)cn1)c1cc(F)c(-c2ccc(F)c(C(F)F)c2)cc1OC [Example 2-2, 6-((3′-(difluoromethyl)-2,4′-difluoro-5-methoxy-4-biphenylyl)(methylcarbamoyl)amino)-N-2-pyrimidinyl-3-pyridinesulfonamide]",7
6,"CNC(=O)N(c1ccc(S(=O)(=O)Nc2ccon2)cn1)c1cc(F)c(-c2cccc(OCC(F)(F)F)c2)cc1OC [Example 1-12, 6-((2-fluoro-5-methoxy-3′-(2,2,2-trifluoroethoxy)-4-biphenylyl)(methylcarbamoyl)amino)-N-3-isoxazolyl-3-pyridinesulfonamide]",85
7,"CNC(=O)N(c1ccc(S(=O)(=O)Nc2ccon2)cn1)c1cc(F)c(-c2ccc(C)c(Cl)c2)cc1OC [Example 1-17, 6-((3′-chloro-2-fluoro-5-methoxy-4′-methyl-4-biphenylyl)(methylcarbamoyl)amino)-N-3-isoxazolyl-3-pyridinesulfonamide]",31
8,"CONC(=O)N(c1ccc(S(=O)(=O)Nc2ccon2)cn1)c1cc(F)c(-c2cccc(C(F)(F)F)c2)cc1OC [Example 1-90, 6-((2-fluoro-5-methoxy-3′-(trifluoromethyl)-4-biphenylyl)(methoxycarbamoyl)amino)-N-3-isoxazolyl-3-pyridinesulfonamide]",69
9,"CNC(=O)N(c1ccc(S(=O)(=O)Nc2ccon2)cn1)c1cc(Cl)c(-c2cc(OC(F)(F)F)ccc2OC)cc1OC [Example 1-56, 6-((2-chloro-2′,5-dimethoxy-5′-(trifluoromethoxy)-4-biphenylyl)(methylcarbamoyl)amino)-N-3-isoxazolyl-3-pyridinesulfonamide]",19
10,"CNC(=O)N(c1ccc(S(=O)(=O)Nc2ccon2)cn1)c1cc(F)c(-c2cccc(OC)c2)cc1OC [Example 1-8, 6-((2-fluoro-3′,5-dimethoxy-4-biphenylyl)(methylcarbamoyl)amino)-N-3-isoxazolyl-3-pyridinesulfonamide]",206
11,"CNC(=O)N(c1ccc(S(=O)(=O)Nc2ccon2)cn1)c1cc(Cl)c(-c2cc(C(F)(F)F)cnc2OC)cc1OC [Example 1-40, 6-((5-chloro-2-methoxy-4-(2-methoxy-5-(trifluoromethyl)-3-pyridinyl)phenyl)(methylcarbamoyl)amino)-N-3-isoxazolyl-3-pyridinesulfonamide]",32
12,"CNC(=O)N(c1ccc(S(=O)(=O)Nc2ccon2)cn1)c1cc(F)c(-c2cccc(OC(F)(F)F)c2)cc1OC [Example 1-14, 6-((2-fluoro-5-methoxy-3′-(trifluoromethoxy)-4-biphenylyl)(methylcarbamoyl)amino)-N-3-isoxazolyl-3-pyridinesulfonamide]",17
13,"CNC(=O)N(c1ccc(S(=O)(=O)Nc2ncccn2)cn1)c1cc(F)c(-c2cc(F)c(F)c(F)c2)cc1OC [Example 1-86, 6-((methylcarbamoyl)(2,3′,4′,5′-tetrafluoro-5-methoxy-4-biphenylyl)amino)-N-2-pyrimidinyl-3-pyridinesulfonamide]",220
14,"CNC(=O)N(c1ccc(S(=O)(=O)Nc2ccon2)cn1)c1cc(Cl)c(-c2cc(Cl)cc(C#N)c2)cc1OC [Example 1-53, 6-((2,3′-dichloro-5′-cyano-5-methoxy-4-biphenylyl)(methylcarbamoyl)amino)-N-3-isoxazolyl-3-pyridinesulfonamide]",48
15,"CNC(=O)N(c1ccc(S(=O)(=O)Nc2ccon2)cn1)c1cc(Cl)c(-c2cccc(OC(F)F)c2)cc1OC [Example 1-47, 6-((2-chloro-3′-(difluoromethoxy)-5-methoxy-4-biphenylyl)(methylcarbamoyl)amino)-N-3-isoxazolyl-3-pyridinesulfonamide]",72
16,"CNC(=O)N(c1ccc(S(=O)(=O)Nc2ccon2)cn1)c1cc(F)c(-c2ccc(F)c(OC(F)(F)F)c2)cc1OC [Example 1-27, 6-((2,4′-difluoro-5-methoxy-3′-(trifluoromethoxy)-4-biphenylyl)(methylcarbamoyl)amino)-N-3-isoxazolyl-3-pyridinesulfonamide]",20
17,"CNC(=O)N(c1ccc(S(=O)(=O)Nc2ccon2)cc1)c1ccc(-c2ccc(Cl)c(C)c2)cc1OC [Example 9, 4-(1-(4′-chloro-3-methoxy-3′-methyl-[1,1′-biphenyl]-4-yl)-3methylureido)-N-(isoxazol-3-yl)benzenesulfonamide]",400
18,"COC(=O)N(c1ccc(S(=O)(=O)Nc2ccon2)cn1)c1cc(Cl)c(-c2cccc(C(F)(F)F)c2)cc1OC [Example 6, Methyl (2-chloro-5-methoxy-3′-(trifluoromethyl)-[1,1′-biphenyl]-4-yl)(5-(N-(isoxazol-3-yl)sulfamoyl)pyridine-2-yl)carbamate]",167
19,"CNC(=O)N(c1ccc(S(=O)(=O)Nc2ncccn2)cn1)c1cc(F)c(-c2cccc(C(F)(F)F)c2)cc1OC [Example 1-81, 6-((2-fluoro-5-methoxy-3′-(trifluoromethyl)-4-biphenylyl)(methylcarbamoyl)amino)-N-2-pyrimidinyl-3-pyridinesulfonamide]",143
20,"CNC(=O)N(c1ccc(S(=O)(=O)Nc2ccon2)cn1)c1cc(F)c(-c2cccc(C(F)(F)F)c2)cc1OC [Example 1-4, 6-((2-fluoro-5-methoxy-3′-(trifluoromethyl)-4-biphenylyl)(methylcarbamoyl)amino)-N-3-isoxazolyl-3-pyridinesulfonamide]",33
